{"source": "patent US20250243245A1", "about": "(priority 2022, published 2025)", "key": {"[1]": {"system": "E. coli BL21"}, "[2]": {"test": "in vitro", "conditions": "human, HEK cells (HEK294 [sic])"}, "[3]": {"system": "tomato and tobacco leaves", "test": "Leaf infiltration toxicity on tomato and tobacco leaves", "conditions": "for toxicity to tomato and tobacco: 15-25 μM, even after 96 hours of leaf infiltration; for corrosion of infiltrated tomato and tobacco leaves: 24, 48, 72, and 96 hours of infiltration (FIGS. 8A-H)"}, "[4]": {"system": "E. coli strain BL21", "conditions": "BL21, 24 h"}, "[5]": {"system": "CLas", "format": "cell-based, Candidatus Liberibacter asiaticus"}, "[6]": {"system": "E. amylovora", "format": "cell-based, Erwinia amylovora"}, "[7]": {"system": "selected genes in the PTI, ETI, and SA/JA/ET signaling", "format": "cell-based, apple (Red Delicious)"}, "[8]": {"system": "ATCC25922"}}, "note": "Values joined by “and” are separate entries in the source; they are usually repeats but may differ in a detail not shown here. Identical values can stand only once. Like-named read-outs stand apart in the source and are kept apart here. Where a SMILES comes first, the peptide text is derived from it."}
{"smiles": "CC[C@H](C)[C@H](NC(=O)[C@H](CCCNC(=N)N)NC(=O)[C@H](CCCNC(=N)N)NC(=O)[C@H](CCC(N)=O)NC(=O)[C@H](Cc1c[nH]c2ccccc12)NC(=O)[C@H](Cc1ccccc1)NC(=O)CNC(=O)[C@@H]1CCCN1C(=O)[C@H](CO)NC(=O)CNC(=O)[C@H](CCCCN)NC(=O)[C@H](CC(C)C)NC(=O)[C@H](CO)NC(=O)[C@H](CCC(=O)O)NC(=O)[C@H](CC(C)C)NC(=O)[C@@H](NC(=O)[C@H](CCCCN)NC(=O)[C@H](CC(C)C)NC(=O)[C@@H](NC(=O)[C@H](CCCCN)NC(=O)[C@H](CCC(=O)O)NC(=O)[C@@H]1CCCN1C(=O)[C@H](CC(C)C)NC(=O)[C@H](CCCCN)NC(=O)[C@@H](N)CCCCN)[C@@H](C)CC)[C@@H](C)CC)C(=O)N[C@@H](CCCNC(=N)N)C(=O)N[C@@H](CCCNC(=N)N)C(=O)N[C@@H](Cc1c[nH]c2ccccc12)C(=O)N[C@@H](CCCNC(=N)N)C(=O)N[C@@H](CCCNC(=N)N)C(=O)O", "note": "[UGK-17] (H-KKLPEKILKILESLKGSPGFWQRRIRRWRR-OH)", "values": [{"measurement": "IC50", "setting": "[1]; BL21, 24 h", "result": "1.36 ± 0.04", "unit": "µM"}, {"measurement": "cytotoxicity at 72 h, 20 µM", "setting": "[2]", "result": "< 20", "unit": "%"}, {"measurement": "toxicity to tomato and tobacco", "setting": "[3]", "result": "not toxic"}, {"measurement": "corrosion of infiltrated tomato and tobacco leaves", "setting": "[3]", "result": "no corrosion beyond the infiltrated spots"}]}
{"smiles": "CC[C@H](C)[C@H](NC(=O)[C@H](CCCNC(=N)N)NC(=O)[C@H](CCCNC(=N)N)NC(=O)[C@H](CCC(N)=O)NC(=O)[C@H](Cc1c[nH]c2ccccc12)NC(=O)[C@@H](N)Cc1ccccc1)C(=O)N[C@@H](CCCNC(=N)N)C(=O)N[C@@H](CCCNC(=N)N)C(=O)N[C@@H](Cc1c[nH]c2ccccc12)C(=O)N[C@@H](CCCNC(=N)N)C(=O)N[C@@H](CCCNC(=N)N)C(=O)O", "note": "[Peptide 11P-3, reference compound] (H-FWQRRIRRWRR-OH; N-terminus and C-terminus assumed)", "values": [{"measurement": "MIC", "setting": "[4]", "result": ">20", "unit": "mM"}, {"measurement": "IC50", "setting": "[1]; BL21, 24 h", "result": "49 ± 2.79", "unit": "µM"}]}
{"smiles": "CC[C@H](C)[C@H](NC(=O)[C@H](CCC(=O)O)NC(=O)[C@H](CC(C)C)NC(=O)[C@@H](NC(=O)[C@H](CCCCN)NC(=O)[C@H](CCC(=O)O)NC(=O)[C@@H]1CCCN1C(=O)[C@H](CC(C)C)NC(=O)[C@H](CCCCN)NC(=O)[C@@H](N)CCCCN)[C@@H](C)CC)C(=O)N[C@@H](CC(C)C)C(=O)NCC(=O)N[C@@H](CO)C(=O)NCC(=O)N[C@@H](Cc1ccc(O)cc1)C(=O)N[C@@H](CCCCN)C(=O)N[C@@H](CCCCN)C(=O)N[C@@H](CC(C)C)C(=O)N1CCC[C@H]1C(=O)N[C@@H](Cc1ccccc1)C(=O)N[C@@H](Cc1c[nH]c2ccccc12)C(=O)N[C@@H](CCC(N)=O)C(=O)N[C@@H](CCCNC(=N)N)C(=O)N[C@@H](CCCNC(=N)N)C(=O)N[C@H](C(=O)N[C@@H](CCCNC(=N)N)C(=O)N[C@@H](CCCNC(=N)N)C(=O)N[C@@H](Cc1c[nH]c2ccccc12)C(=O)N[C@@H](CCCNC(=N)N)C(=O)N[C@@H](CCCNC(=N)N)C(=O)O)[C@@H](C)CC", "note": "[Gen-2] (H-KKLPEKILEILGSGYKKLPFWQRRIRRWRR-OH; N-terminus and C-terminus assumed)", "values": [{"measurement": "MIC", "setting": "[4]", "result": "2.5 to 5", "unit": "mM"}, {"measurement": "IC50", "setting": "[1]; BL21, 24 h", "result": "2.83 ± 0.14", "unit": "µM"}]}
{"smiles": "CC[C@H](C)[C@H](NC(=O)[C@H](CCCCN)NC(=O)[C@H](CC(C)C)NC(=O)[C@@H](NC(=O)[C@H](CCCCN)NC(=O)[C@H](CCCCN)NC(=O)[C@@H](NC(=O)[C@H](CC(C)C)NC(=O)[C@H](CCCCN)NC(=O)[C@@H](N)CCCCN)[C@@H](C)CC)[C@@H](C)CC)C(=O)N[C@@H](CC(C)C)C(=O)O", "note": "[Peptide 11P-1, reference compound] (H-KKLIKKILKIL-OH; N-terminus and C-terminus assumed)", "values": [{"measurement": "MIC", "setting": "[4]", "result": "10 to 20", "unit": "mM"}, {"measurement": "IC50", "setting": "[1]; BL21, 24 h", "result": "12.9 ± 0.62", "unit": "µM"}]}
{"smiles": "CC[C@H](C)[C@H](NC(=O)[C@H](CCCCN)NC(=O)[C@H](CC(C)C)NC(=O)[C@@H](NC(=O)[C@H](CCCCN)NC(=O)[C@H](CCCCN)NC(=O)[C@@H]1CCCN1C(=O)[C@H](CC(C)C)NC(=O)[C@H](CCCCN)NC(=O)[C@@H](N)CCCCN)[C@@H](C)CC)C(=O)N[C@@H](CC(C)C)C(=O)NCC(=O)N[C@@H](CO)C(=O)NCC(=O)N[C@@H](Cc1ccc(O)cc1)C(=O)NCC(=O)N[C@@H](CO)C(=O)N1CCC[C@H]1C(=O)NCC(=O)N[C@@H](Cc1ccccc1)C(=O)N[C@@H](Cc1c[nH]c2ccccc12)C(=O)N[C@@H](CCC(N)=O)C(=O)N[C@@H](CCCNC(=N)N)C(=O)N[C@@H](CCCNC(=N)N)C(=O)N[C@H](C(=O)N[C@@H](CCCNC(=N)N)C(=O)N[C@@H](CCCNC(=N)N)C(=O)N[C@@H](Cc1c[nH]c2ccccc12)C(=O)N[C@@H](CCCNC(=N)N)C(=O)N[C@@H](CCCNC(=N)N)C(=O)O)[C@@H](C)CC", "note": "[Peptide 30P-3]", "values": [{"measurement": "Ct value, DNA, CLas clearance from infected citrus leaves", "setting": "[5]", "result": "29.08 ± 0.018 (2.3 × 10^4 ± 0.122)"}, {"measurement": "Ct value, RNA, CLas clearance from infected citrus leaves", "setting": "[5]", "result": "31.80 ± 0.028 (6.8 × 10^3 ± 0.190)"}, {"measurement": "Ct, DNA, HLBas (CLas primer), Mean", "setting": "[5]", "result": "27.53 and 26.725"}, {"measurement": "Ct, DNA, HLBas (CLas primer), single replicate", "setting": "[5]", "result": "27 (2×) and 28.06 and 26.45"}, {"measurement": "Ct, RNA, HLBas (CLas primer), Mean", "setting": "[5]", "result": 30.155}, {"measurement": "Ct, RNA, HLBas (CLas primer), single replicate", "setting": "[5]", "result": "29.94 and 30.37"}, {"measurement": "Ct, DNA, Erwinia Primer (P29T), Mean", "setting": "[6]; 20 μM peptide", "result": 37.19}, {"measurement": "Ct, DNA, Erwinia Primer (P29T), single replicate", "setting": "[6]; 20 μM peptide", "result": "37.67 and 36.71"}, {"measurement": "Ct, DNA, Erwinia Primer (P29T), Mean", "setting": "[6]; 25 μM peptide", "result": 36.5}, {"measurement": "Ct, DNA, Erwinia Primer (P29T), single replicate", "setting": "[6]; 25 μM peptide", "result": "37.76 and 35.24"}, {"measurement": "Ct, RNA, Erwinia Primer (P29T), Mean", "setting": "[6]; 25∞M peptide", "result": 31.535}, {"measurement": "Ct, RNA, Erwinia Primer (P29T), single replicate", "setting": "[6]; 25∞M peptide", "result": "31.56 and 31.51"}, {"measurement": "Ct value, DNA, E. amylovora clearance from infected apple leaves", "setting": "[6]; qPCR of DNA, 25 μM peptide", "result": "36.50 ± 0.89"}, {"measurement": "cfu, DNA, E. amylovora clearance from infected apple leaves", "setting": "[6]; qPCR of DNA, 25 μM peptide, value in brackets", "result": "~10^2 cfu"}, {"measurement": "Ct value, RNA, E. amylovora clearance from infected apple leaves", "setting": "[6]; qPCR of RNA, 25 μM peptide", "result": "31.54 ± 0.018"}, {"measurement": "cfu, RNA, E. amylovora clearance from infected apple leaves", "setting": "[6]; qPCR of RNA, 25 μM peptide, value in brackets", "result": "7.8 × 10^3 ± 0.122 cfu"}, {"measurement": "expression of the selected genes", "setting": "[7]", "result": "lower expression of the selected genes"}, {"measurement": "IC50", "setting": "[1]; BL21, 24 h", "result": "1.45 ± 0.09", "unit": "µM"}, {"measurement": "cytotoxicity at 72 h, 20 µM", "setting": "[2]", "result": "< 20", "unit": "%"}, {"measurement": "toxicity to tomato and tobacco", "setting": "[3]", "result": "not toxic"}, {"measurement": "corrosion of infiltrated tomato and tobacco leaves", "setting": "[3]", "result": "no corrosion beyond the infiltrated spots"}]}
{"smiles": "CC[C@H](C)[C@H](NC(=O)[C@H](CCCCN)NC(=O)[C@H](CC(C)C)NC(=O)[C@@H](NC(=O)[C@H](CCC(=O)O)NC(=O)[C@H](CCCCN)NC(=O)[C@@H]1CCCN1C(=O)[C@H](CC(C)C)NC(=O)[C@H](CCCCN)NC(=O)[C@@H](N)CCCCN)[C@@H](C)CC)C(=O)N[C@@H](CC(C)C)C(=O)NCC(=O)N[C@@H](CO)C(=O)NCC(=O)N[C@@H](Cc1ccc(O)cc1)C(=O)NCC(=O)N[C@@H](CO)C(=O)N[C@@H](CC(C)C)C(=O)N1CCC[C@H]1C(=O)N[C@@H](CCCCN)C(=O)N[C@@H](CCC(=O)O)C(=O)N[C@H](C(=O)N[C@@H](CC(C)C)C(=O)N[C@@H](CCCCN)C(=O)N[C@H](C(=O)N[C@@H](CC(C)C)C(=O)N[C@@H](CCC(=O)O)C(=O)N[C@@H](CC(C)C)C(=O)N[C@@H](CCCCN)C(=O)N[C@@H](CCCCN)C(=O)O)[C@@H](C)CC)[C@@H](C)CC", "note": "[Gen-1] (H-KKLPKEILKILGSGYGSLPKEILKILELKK-OH; N-terminus and C-terminus assumed)", "values": [{"measurement": "MIC", "setting": "[4]", "result": "5 to 10", "unit": "mM"}, {"measurement": "IC50", "setting": "[1]; BL21, 24 h", "result": "10.22 ± 0.07", "unit": "µM"}]}
{"smiles": "CC[C@H](C)[C@H](NC(=O)[C@H](CCCNC(=N)N)NC(=O)[C@H](CCCNC(=N)N)NC(=O)[C@H](CCC(N)=O)NC(=O)[C@H](Cc1c[nH]c2ccccc12)NC(=O)[C@H](Cc1ccccc1)NC(=O)CNC(=O)[C@@H]1CCCN1C(=O)[C@H](CO)NC(=O)CNC(=O)[C@H](Cc1ccc(O)cc1)NC(=O)CNC(=O)[C@H](CO)NC(=O)[C@H](CCC(=O)O)NC(=O)[C@H](CC(C)C)NC(=O)[C@@H](NC(=O)[C@H](CCCCN)NC(=O)[C@H](CC(C)C)NC(=O)[C@@H](NC(=O)[C@H](CCCCN)NC(=O)[C@H](CCC(=O)O)NC(=O)[C@@H]1CCCN1C(=O)[C@H](CC(C)C)NC(=O)[C@H](CCCCN)NC(=O)[C@@H](N)CCCCN)[C@@H](C)CC)[C@@H](C)CC)C(=O)N[C@@H](CCCNC(=N)N)C(=O)N[C@@H](CCCNC(=N)N)C(=O)N[C@@H](Cc1c[nH]c2ccccc12)C(=O)N[C@@H](CCCNC(=N)N)C(=O)N[C@@H](CCCNC(=N)N)C(=O)O", "note": "[UGK-13] (H-KKLPEKILKILESGYGSPGFWQRRIRRWRR-OH)", "values": [{"measurement": "IC50", "setting": "[1]; BL21", "result": "1.2 ± 0.1", "unit": "µM"}, {"measurement": "IC50", "setting": "[1]; BL21, 24 h", "result": "1.24 ± 0.02", "unit": "µM"}, {"measurement": "IC50", "setting": "[8]", "result": "1.4 ± 0.3", "unit": "µM"}, {"measurement": "cytotoxicity at 72 h, 20 µM", "setting": "[2]", "result": "< 20", "unit": "%"}, {"measurement": "toxicity to tomato and tobacco", "setting": "[3]", "result": "not toxic"}, {"measurement": "corrosion of infiltrated tomato and tobacco leaves", "setting": "[3]", "result": "no corrosion beyond the infiltrated spots"}]}
